This assay deals with T1, Angiotensin II (A II) receptor (Oryctolagus cuniculus, UniProt P34976).
T1 construct: membrane preparation derived from rabbit aortae; tissue Pel-Freeze Biologicals; host or cells: frozen rabbit aortae, membrane preparation
T1 sequence (P34976 1-359): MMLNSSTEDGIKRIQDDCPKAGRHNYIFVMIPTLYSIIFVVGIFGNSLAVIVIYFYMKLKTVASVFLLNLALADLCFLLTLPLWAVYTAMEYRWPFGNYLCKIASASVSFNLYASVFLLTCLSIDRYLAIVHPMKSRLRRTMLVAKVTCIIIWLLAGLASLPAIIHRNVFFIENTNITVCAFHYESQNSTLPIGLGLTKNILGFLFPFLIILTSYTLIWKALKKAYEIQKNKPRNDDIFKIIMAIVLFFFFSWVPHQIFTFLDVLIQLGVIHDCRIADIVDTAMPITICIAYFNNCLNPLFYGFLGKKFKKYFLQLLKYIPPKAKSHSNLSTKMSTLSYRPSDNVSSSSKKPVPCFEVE
Put plainly: Receptor binding assay using rabbit aortae membrane preparation (displacement of 125I-Sar1Ile8-angiotensin II; the "IC50" assay). The note with it: membrane preparation derived from rabbit aortae; 37° C., 90 minutes; read-out: inhibitory concentration (IC50) giving 50% displacement of the total specifically bound 125I-Sar1 Ile8-angiotensin II. Here is the method: This assay is also referred to herein as the "IC50 " assay.
RECEPTOR BINDING ASSAY USING RABBIT AORTAE MEMBRANE PREPARATION
Three frozen rabbit aortae (obtained from Pel-Freeze Biologicals) were suspended in 5 mM Tris-0.25M Sucrose, pH 7.4 buffer (50 ml) homogenized, and then centifuged. The mixture was filtered through a cheesecloth and the supernatant was centrifuged for 30 minutes at 20,000 rpm at 4° C. The pellet thus obtained was resuspended in 30 ml of 50 mM Tris-5 mM MgCl2 buffer containing 0.2% Bovine Serum Albumin and 0.2 mg/ml Bacitration and the suspension was used for 100 assay tubes. Samples tested for screening were done in duplicate. To the membrane preparation (0.25 ml) there was added ^125 I-Sar^1 Ile^8 -angiotensin II [obtained from New England Nuclear] (10 ul; 20,000 cpm) with or without the test sample and the mixture was incubated at 37° C. for 90 minutes. The mixture was then diluted with ice-cold 50 mM Tris-0.9% NaCl, pH 7.4 (4 ml) and filtered through a glass fiber filter (GF/B Whatman 2.4" diameter). The filter was soaked in scintillation cocktail (10 ml) and counted for radioactivity using Packard 2660 Tricarb liquid scintillation counter. […]
In general terms: Displacement assays read how much labelled ligand stays bound in the presence of the test substance.

Take `CCCc1nc2c(C)ccnc2n1Cc1ccc(-c2ccccc2-c2nnnn2CC2=CC(O)C(O)C(O)C2=O)cc1` (stereo not shown) [Compound I]: the IC50 was under 50 µM.

The values are drawn from patent publication US5087702A, “Microbial transformation process for producing an antihypertensive product” (Merck & Co., Inc., priority 1991, dated 1992).
